Experimental data: patent US20250145606A1 (Arcus Biosciences, Inc., priority 2023, published 2025)
Read-outs that look alike come from different tables or passages of the source.

Columns and labels:
c-Kit = c-Kit (Homo sapiens (Human), UniProt P10721); assay: Inhibition of c-Kit kinase activity (HTRF KinEASE-TK); assay type: biochemical; conditions: biochemical
Procedure, shortened: (§1)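 Phosphorylation of biotinylated TK peptide read by HTRF (665/620 nm ratio) after 120 min at rt, following 1 h enzyme–compound preincubation. ATP (2× mix): 20 μM CSF1R, 16 μM c-Kit, 40 μM PDGFRβ, 1 μM PDGFRα; MgCl2 10 mM except c-Kit 5 mM. 22-point 1:2 titration; four-parameter IC50.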

PDGFRα = PDGFRα (Homo sapiens (Human), UniProt P16234); assay: Inhibition of PDGFRα kinase activity (HTRF KinEASE-TK); conditions: biochemical
PDGFRα, sequence (P16234 24-1089): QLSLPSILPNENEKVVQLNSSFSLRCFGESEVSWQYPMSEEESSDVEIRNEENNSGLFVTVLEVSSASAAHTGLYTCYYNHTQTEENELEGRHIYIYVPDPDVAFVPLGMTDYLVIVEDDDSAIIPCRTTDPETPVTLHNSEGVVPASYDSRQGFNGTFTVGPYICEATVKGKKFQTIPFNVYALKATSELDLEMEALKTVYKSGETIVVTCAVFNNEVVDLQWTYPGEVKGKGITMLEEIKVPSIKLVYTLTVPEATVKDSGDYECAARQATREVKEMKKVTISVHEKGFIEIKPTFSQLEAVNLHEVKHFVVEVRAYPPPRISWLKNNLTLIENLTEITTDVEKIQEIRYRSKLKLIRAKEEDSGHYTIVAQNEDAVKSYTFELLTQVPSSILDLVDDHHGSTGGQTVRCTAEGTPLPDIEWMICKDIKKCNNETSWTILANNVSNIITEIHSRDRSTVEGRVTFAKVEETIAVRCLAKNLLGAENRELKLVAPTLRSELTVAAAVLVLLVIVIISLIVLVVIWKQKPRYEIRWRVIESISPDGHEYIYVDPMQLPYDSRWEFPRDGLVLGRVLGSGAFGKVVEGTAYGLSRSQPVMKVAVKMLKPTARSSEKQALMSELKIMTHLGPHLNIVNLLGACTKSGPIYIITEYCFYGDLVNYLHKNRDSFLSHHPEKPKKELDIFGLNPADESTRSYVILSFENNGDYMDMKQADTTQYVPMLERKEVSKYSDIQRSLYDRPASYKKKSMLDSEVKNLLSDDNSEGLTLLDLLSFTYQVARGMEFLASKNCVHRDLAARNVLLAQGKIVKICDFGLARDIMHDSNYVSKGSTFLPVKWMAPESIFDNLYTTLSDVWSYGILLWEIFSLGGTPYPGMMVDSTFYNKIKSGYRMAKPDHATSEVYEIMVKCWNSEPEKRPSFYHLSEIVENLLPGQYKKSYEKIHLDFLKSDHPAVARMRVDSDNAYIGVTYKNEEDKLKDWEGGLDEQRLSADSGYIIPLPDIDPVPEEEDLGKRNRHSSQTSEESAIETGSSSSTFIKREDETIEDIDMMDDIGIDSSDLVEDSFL
Procedure, shortened: as §1

PDGFRβ = PDGFRβ (Homo sapiens (Human), UniProt P09619); assay: Inhibition of PDGFRβ kinase activity (HTRF KinEASE-TK); conditions: biochemical
PDGFRβ, sequence (P09619 33-1106): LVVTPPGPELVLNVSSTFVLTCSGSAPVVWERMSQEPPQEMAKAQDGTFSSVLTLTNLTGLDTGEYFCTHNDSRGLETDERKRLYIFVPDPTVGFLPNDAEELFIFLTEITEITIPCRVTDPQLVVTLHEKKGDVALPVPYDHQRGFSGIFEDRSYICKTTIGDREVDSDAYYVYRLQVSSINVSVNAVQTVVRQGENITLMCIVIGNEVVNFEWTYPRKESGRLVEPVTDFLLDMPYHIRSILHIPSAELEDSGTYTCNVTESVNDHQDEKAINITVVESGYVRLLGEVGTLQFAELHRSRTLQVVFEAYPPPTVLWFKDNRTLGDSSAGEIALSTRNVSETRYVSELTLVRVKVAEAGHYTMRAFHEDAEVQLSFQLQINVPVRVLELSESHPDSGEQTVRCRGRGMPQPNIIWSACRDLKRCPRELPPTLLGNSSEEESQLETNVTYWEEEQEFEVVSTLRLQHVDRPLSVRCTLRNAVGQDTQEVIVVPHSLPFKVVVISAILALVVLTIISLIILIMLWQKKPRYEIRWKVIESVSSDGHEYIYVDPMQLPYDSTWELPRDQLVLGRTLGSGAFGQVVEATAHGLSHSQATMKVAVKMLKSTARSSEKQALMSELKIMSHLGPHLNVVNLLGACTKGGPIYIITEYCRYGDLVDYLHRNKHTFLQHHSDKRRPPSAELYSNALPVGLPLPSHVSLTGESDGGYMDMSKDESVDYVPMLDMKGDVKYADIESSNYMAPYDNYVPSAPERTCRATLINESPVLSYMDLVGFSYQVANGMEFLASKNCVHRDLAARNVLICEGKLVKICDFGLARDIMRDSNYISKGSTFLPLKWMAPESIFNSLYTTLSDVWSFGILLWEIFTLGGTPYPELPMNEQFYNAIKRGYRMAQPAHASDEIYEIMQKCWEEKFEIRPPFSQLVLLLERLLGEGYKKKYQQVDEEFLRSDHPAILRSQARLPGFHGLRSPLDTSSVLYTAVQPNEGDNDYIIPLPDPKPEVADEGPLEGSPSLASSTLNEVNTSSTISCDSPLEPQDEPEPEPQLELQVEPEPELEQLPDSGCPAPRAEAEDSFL
Procedure, shortened: as §1

CSF1R = CSF1R (Homo sapiens (Human), UniProt P07333); assay: Inhibition of CSF1R kinase activity (HTRF KinEASE-TK); conditions: biochemical
CSF1R, sequence (P07333 20-972): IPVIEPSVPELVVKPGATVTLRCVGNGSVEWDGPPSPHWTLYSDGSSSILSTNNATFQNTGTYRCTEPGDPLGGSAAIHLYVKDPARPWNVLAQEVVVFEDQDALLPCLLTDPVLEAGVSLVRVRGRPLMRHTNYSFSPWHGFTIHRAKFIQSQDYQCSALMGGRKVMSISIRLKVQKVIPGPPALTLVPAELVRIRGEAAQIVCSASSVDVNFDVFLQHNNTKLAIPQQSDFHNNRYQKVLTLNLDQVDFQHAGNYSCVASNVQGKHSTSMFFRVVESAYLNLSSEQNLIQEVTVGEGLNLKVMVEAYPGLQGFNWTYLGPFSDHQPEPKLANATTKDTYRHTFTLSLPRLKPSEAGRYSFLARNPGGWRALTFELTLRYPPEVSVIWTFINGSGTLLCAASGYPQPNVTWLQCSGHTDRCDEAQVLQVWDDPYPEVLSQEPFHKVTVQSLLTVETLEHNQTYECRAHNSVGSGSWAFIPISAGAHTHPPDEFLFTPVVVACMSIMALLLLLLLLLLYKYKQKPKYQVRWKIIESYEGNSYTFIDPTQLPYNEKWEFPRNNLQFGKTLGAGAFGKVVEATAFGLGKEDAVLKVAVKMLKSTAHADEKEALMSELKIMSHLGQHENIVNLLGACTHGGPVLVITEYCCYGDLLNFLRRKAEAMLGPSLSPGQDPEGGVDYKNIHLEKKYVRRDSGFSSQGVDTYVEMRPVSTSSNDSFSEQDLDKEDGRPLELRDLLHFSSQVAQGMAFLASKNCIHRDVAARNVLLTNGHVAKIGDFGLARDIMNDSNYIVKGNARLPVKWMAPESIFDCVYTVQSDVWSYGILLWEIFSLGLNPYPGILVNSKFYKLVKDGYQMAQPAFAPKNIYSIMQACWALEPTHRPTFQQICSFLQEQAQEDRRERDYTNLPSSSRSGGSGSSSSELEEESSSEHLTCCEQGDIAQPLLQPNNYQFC
Procedure, shortened: as §1

FLT3 = FLT3 (Homo sapiens (Human), UniProt P36888); assay: Inhibition of FLT3 kinase activity (HTRF KinEASE-TK); assay type: biochemical; conditions: biochemical
FLT3, sequence (P36888 27-993): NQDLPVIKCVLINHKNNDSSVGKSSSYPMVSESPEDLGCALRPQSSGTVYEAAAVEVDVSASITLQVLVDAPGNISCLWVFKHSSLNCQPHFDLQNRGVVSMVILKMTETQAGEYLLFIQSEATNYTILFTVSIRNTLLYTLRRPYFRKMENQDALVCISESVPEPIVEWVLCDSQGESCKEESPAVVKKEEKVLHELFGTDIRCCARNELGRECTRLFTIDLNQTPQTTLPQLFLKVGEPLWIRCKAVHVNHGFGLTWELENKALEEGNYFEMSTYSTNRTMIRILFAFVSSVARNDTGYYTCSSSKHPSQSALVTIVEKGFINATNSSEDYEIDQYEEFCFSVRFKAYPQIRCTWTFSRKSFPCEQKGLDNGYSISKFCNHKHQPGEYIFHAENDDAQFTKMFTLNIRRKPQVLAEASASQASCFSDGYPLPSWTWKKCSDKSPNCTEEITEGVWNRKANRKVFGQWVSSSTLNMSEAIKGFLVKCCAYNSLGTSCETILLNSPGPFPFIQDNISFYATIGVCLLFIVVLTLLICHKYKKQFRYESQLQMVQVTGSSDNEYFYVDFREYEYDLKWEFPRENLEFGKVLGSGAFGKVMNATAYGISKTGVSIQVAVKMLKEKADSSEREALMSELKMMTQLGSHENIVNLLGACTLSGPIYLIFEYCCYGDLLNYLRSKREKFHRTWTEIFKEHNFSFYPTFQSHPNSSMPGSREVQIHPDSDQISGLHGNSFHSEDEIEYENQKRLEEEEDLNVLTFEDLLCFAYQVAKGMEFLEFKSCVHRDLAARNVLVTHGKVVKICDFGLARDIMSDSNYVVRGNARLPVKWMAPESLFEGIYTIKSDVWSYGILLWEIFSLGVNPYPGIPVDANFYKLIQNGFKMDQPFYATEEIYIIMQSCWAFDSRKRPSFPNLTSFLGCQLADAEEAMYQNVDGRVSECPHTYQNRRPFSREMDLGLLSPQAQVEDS
Procedure, shortened: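 FLT3 tyrosine kinase activity was measured with the HTRF KinEASE-TK kit by following phosphorylation of a biotinylated TK peptide. After the 45 min reaction, 10 μL of detection mix was added: 0.2 μM (2×) Streptavidin-XL665 and 2 μM (2×) TK-Antibody-Cryptate in detection buffer. After 60 min, TR-FRET was read on an Envision as the 665 nm/620 nm emission ratio with 320 nm excitation.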

[1] = test system: Phospho-KIT (Y703) in M07e cells; assay: Phospho-KIT (Y703) cellular assay in M07e cells; assay type: cell-based; conditions: M-07e, read-out: M07e Cell IC50
Procedure, shortened: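 Serum-starved M07e cells preincubated 50 min at 37° C with 11-point half-log compound titration, then stimulated 10 min with SCF at 90.9 ng/mL final. Fixed, permeabilized cells stained for phospho-KIT Y703 and read by flow cytometry (live-gated geometric mean); IC50 by 4-parameter fit normalized to DMSO and positive control.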

c-Kit, sequence (P10721 26-976): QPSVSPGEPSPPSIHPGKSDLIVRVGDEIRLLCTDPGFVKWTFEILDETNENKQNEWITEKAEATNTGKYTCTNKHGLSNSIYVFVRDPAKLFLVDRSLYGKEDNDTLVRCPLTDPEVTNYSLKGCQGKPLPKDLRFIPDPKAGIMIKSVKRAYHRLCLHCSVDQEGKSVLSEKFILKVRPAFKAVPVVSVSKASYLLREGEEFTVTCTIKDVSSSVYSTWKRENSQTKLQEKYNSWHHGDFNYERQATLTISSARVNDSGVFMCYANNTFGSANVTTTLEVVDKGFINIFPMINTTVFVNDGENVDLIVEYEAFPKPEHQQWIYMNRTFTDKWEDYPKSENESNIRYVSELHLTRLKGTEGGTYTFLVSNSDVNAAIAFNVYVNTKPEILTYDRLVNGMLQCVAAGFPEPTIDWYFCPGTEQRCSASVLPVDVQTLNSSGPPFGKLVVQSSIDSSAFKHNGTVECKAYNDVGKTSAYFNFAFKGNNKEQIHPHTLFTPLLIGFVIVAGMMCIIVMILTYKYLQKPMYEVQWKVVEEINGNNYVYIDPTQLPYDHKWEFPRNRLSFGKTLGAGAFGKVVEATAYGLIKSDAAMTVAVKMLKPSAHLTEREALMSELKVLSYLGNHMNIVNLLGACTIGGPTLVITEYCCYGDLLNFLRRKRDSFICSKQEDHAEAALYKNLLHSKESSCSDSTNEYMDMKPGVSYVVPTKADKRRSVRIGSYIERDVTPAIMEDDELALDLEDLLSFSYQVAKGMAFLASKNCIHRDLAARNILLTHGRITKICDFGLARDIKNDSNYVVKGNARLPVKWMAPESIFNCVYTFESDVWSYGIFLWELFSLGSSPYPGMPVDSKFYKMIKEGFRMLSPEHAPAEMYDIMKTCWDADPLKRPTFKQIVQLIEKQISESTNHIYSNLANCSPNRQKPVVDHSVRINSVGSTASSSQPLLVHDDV

Compound | IC50 (c-Kit; HTRF KinEASE-TK) | IC50 (PDGFRα; HTRF KinEASE-TK) | IC50 (PDGFRβ; HTRF KinEASE-TK) | IC50 (CSF1R; HTRF KinEASE-TK) | IC50 (FLT3; HTRF KinEASE-TK) | IC50 ([1]; Phospho-KIT (Y703), M07e cells) | IC50 (c-Kit) | IC50 (PDGFRα) | IC50 (PDGFRβ) | IC50 (CSF1R) | IC50 (FLT3) | IC50 ([1]; phospho-KIT (Y703), SCF-stimulated M07e cells)
COc1ccc(NC(=O)c2cc(NC(=O)c3cnc(N)s3)c(C)cc2F)nc1 [Example 131, 2-Amino-N-[4-fluoro-5-[(5-methoxypyridin-2-yl)carbamoyl]-2-methylphenyl]-1,3-thiazole-5-carboxamide] | < 100 nM | > 1000 nM | > 1000 nM | > 1000 nM | > 1000 nM | < 100 nM | – | – | – | – | – | –
CCn1ccc(NC(=O)c2cc(NC(=O)c3cnc(N)s3)c(C)cc2F)n1 [Example 179, 2-Amino-N-[5-[(1-ethylpyrazol-3-yl)carbamoyl]-4-fluoro-2-methylphenyl]-1,3-thiazole-5-carboxamide] | < 100 nM | > 1000 nM | > 1000 nM | > 1000 nM | > 1000 nM | < 100 nM | – | – | – | – | – | –
Cc1cc(F)c(C(=O)Nc2ccc(C(F)F)cn2)cc1NC(=O)c1cnc(N)s1 [Example 226, 2-Amino-N-[5-[[5-(difluoromethyl)pyridin-2-yl]carbamoyl]-4-fluoro-2-methylphenyl]-1,3-thiazole-5-carboxamide] | < 100 nM | > 1000 nM | 100 to 1000 nM | 100 to 1000 nM | > 1000 nM | < 100 nM | – | – | – | – | – | –
Nc1ncc(C(=O)Nc2cc(C(=O)Nc3ccc(OCC(F)(F)F)cn3)c(F)cc2F)s1 [Example 220, 2-Amino-N-[2,4-difluoro-5-[[5-(2,2,2-trifluoroethoxy)pyridin-2-yl]carbamoyl]phenyl]-1,3-thiazole-5-carboxamide] | < 100 nM | > 1000 nM | > 1000 nM | > 1000 nM | > 1000 nM | < 100 nM | – | – | – | – | – | –
Nc1ncc(C(=O)Nc2cc(C(=O)Nc3cnc(C4CC4)cn3)c(F)cc2Cl)s1 [Example 205, 2-Amino-N-[2-chloro-5-[(5-cyclopropylpyrazin-2-yl)carbamoyl]-4-fluorophenyl]-1,3-thiazole-5-carboxamide] | < 100 nM | 100 to 1000 nM | < 100 nM | < 100 nM | > 1000 nM | < 100 nM | – | – | – | – | – | –
Cc1cc(F)c(C(=O)Nc2ccc(OC(F)F)cn2)cc1NC(=O)c1cnc(N)s1 [Example 9, 2-Amino-N-[5-[[5-(difluoromethoxy)pyridin-2-yl]carbamoyl]-4-fluoro-2-methylphenyl]-1,3-thiazole-5-carboxamide] | – | – | – | – | – | – | < 100 nM | > 1000 nM | 100 to 1000 nM | 100 to 1000 nM | > 1000 nM | < 100 nM
Cc1ncc(C(=O)Nc2cc(C(=O)Nc3ccn(C(C)C)n3)c(F)cc2C)s1 [Example 63, N-[4-Fluoro-2-methyl-5-[(1-propan-2-ylpyrazol-3-yl)carbamoyl]phenyl]-2-methyl-1,3-thiazole-5-carboxamide] | < 100 nM | > 1000 nM | > 1000 nM | > 1000 nM | > 1000 nM | < 100 nM | – | – | – | – | – | –
Nc1ncc(C(=O)Nc2cc(C(=O)Nc3ccc(C(F)F)cn3)c(F)cc2Cl)s1 [Example 206, 2-Amino-N-[2-chloro-5-[[5-(difluoromethyl)pyridin-2-yl]carbamoyl]-4-fluorophenyl]-1,3-thiazole-5-carboxamide] | < 100 nM | > 1000 nM | 100 to 1000 nM | 100 to 1000 nM | > 1000 nM | < 100 nM | – | – | – | – | – | –
Cc1ncc(C(=O)Nc2cc(C(=O)Nc3ccn(CC(C)C)n3)c(F)cc2C)s1 [Example 64, N-[4-fluoro-2-methyl-5-[[1-(2-methylpropyl)pyrazol-3-yl]carbamoyl]phenyl]-2-methyl-1,3-thiazole-5-carboxamide] | < 100 nM | > 1000 nM | > 1000 nM | > 1000 nM | > 1000 nM | < 100 nM | – | – | – | – | – | –
Nc1ncc(C(=O)Nc2cc(C(=O)Nc3ncc(C4CC4)cn3)c(F)cc2Cl)s1 [Example 203, 2-Amino-N-[2-chloro-5-[(5-cyclopropylpyrimidin-2-yl)carbamoyl]-4-fluorophenyl]-1,3-thiazole-5-carboxamide] | < 100 nM | > 1000 nM | 100 to 1000 nM | 100 to 1000 nM | > 1000 nM | < 100 nM | – | – | – | – | – | –
CCOc1cnc(NC(=O)c2cc(NC(=O)c3cnc(C)s3)c(C)cc2F)cn1 [Example 17, N-[5-[(5-Ethoxypyrazin-2-yl)carbamoyl]-4-fluoro-2-methylphenyl]-2-methyl-1,3-thiazole-5-carboxamide] | < 100 nM | > 1000 nM | > 1000 nM | > 1000 nM | > 1000 nM | < 100 nM | – | – | – | – | – | –
